Measured values published in patent US4393058A, “Cephalosporin compounds” (Meiji Seika Kaisha, Ltd., priority 1979, dated 1983).
In brackets after ≈: the same amount, converted by molar mass. Counter-ions that a name gives are not always drawn.

Columns and labels:
[1] = tested on: Gram-positive and Gram-negative bacteria, including Pseudomonas aeruginosa; details: conventional cephalosporin series antibiotics; cited from earlier work
[2] = tested on: Pseudomonas aeruginosa M-0025; experiment: Minimum Inhibitory Concentration by Agar Plate Dilution Method; format: cell-based; details: M0025
[3] = tested on: Staphylococcus aereus 209PJC-1; experiment: as above; format: cell-based; details: 209PJC1
[4] = tested on: Pseudomonas aeruginosa IAM-1007; experiment: as above; format: cell-based; details: IAM1007
[5] = tested on: Maltophilia 604; experiment: as above; format: cell-based
[6] = tested on: Proteus vulgaris OX 19; experiment: as above; format: cell-based; details: OX19
[7] = tested on: Serratia species GN 629 (CSase); experiment: as above; format: cell-based; details: GN629
[8] = tested on: Pseudomonas cepacia TMS 199, KM 425; experiment: as above; format: cell-based; details: Burkholderia cepacia
[9] = tested on: Citrobacter freundii GN 346 (CSase); experiment: as above; format: cell-based; details: GN346
[10] = tested on: Serratia marcescens No. 1; experiment: as above; format: cell-based
[11] = tested on: mice; experiment: Acute toxicity, intraperitoneal administration to mice; format: in vivo; details: six mice, intraperitoneally 1,000 mg/kg
Procedure: The toxicity of the compounds according to this invention is very low. None of the six mice administered intraperitoneally 1,000 mg/kg of the compound of Example 2 died. Therefore, the compounds of this invention have very low toxicity. In addition, they have a wide antibacterial spectrum and are very effective in treating infectious diseases, as compared with the conventional cephalosporin series antibiotics such as cephalotin, cefazolin, cephalexin and cephaloridine.

[12] = tested on: Bacillus anthracis No. 119; experiment: microbe, parasite or virus in culture; format: cell-based; details: NO.119, read-out: Minimum Inhibitory Concentration
[13] = tested on: Escherichia coli GN 206 (CSase); experiment: Minimum Inhibitory Concentration by Agar Plate Dilution Method; format: cell-based; details: GN206
[14] = tested on: Proteus rettgeri GN 624 (CSase); experiment: as above; format: cell-based; details: Providencia rettgeri, GN624
[15] = tested on: Pseudomonas cepacia M-0527; experiment: as above; format: cell-based; details: Burkholderia cepacia, M0527
[16] = tested on: Klebsiella pneumoniae GN 69 (PCase); experiment: as above; format: cell-based; details: GN69
[17] = tested on: Proteus morganii 1510 (CSase); experiment: as above; format: cell-based; details: Morganella morganii
[18] = tested on: Staphylococcus aereus Smith S-424; experiment: as above; format: cell-based; details: SMITHS424

**Q.** Which “control of Gram-negative bacilli typified by Pseudomonas aeruginosa” value (“control” below) [1] does the source give for Cc1nnc(SCC2=C(C(=O)O)N3C(=O)[C@@H](NC(=O)Cn4cnnn4)[C@H]3SC2)s1 [cefazolin] here?
**A.** cannot be controlled

**Q.** For CC(=O)OCC1=C(C(=O)O)N2C(=O)[C@@H](NC(=O)Cc3cccs3)[C@H]2SC1 [cephalotin], which “control” value [1] is on record?
**A.** cannot be controlled

**Q.** Which MIC [2] does the source give for COc1ccc(-c2ccc(C(=O)N[C@@H](C(=O)NC3C(=O)N4C(C(=O)O)=C(CSc5nnnn5C)CSC34)c3ccc(O)cc3)c(=O)[nH]2)cc1OC (single isomer, unassigned) [Example 2, sodium salt of 7-{D(-)-α-[6-(3,4-dimethoxyphenyl)-1,2-dihydro-2-oxopyridine-3-carbonylamino]-p-hydroxyphenylacetamido}-3-(1-methyl-1,2,3,4-tetrazol-5-ylthiomethyl)-3-cephem-4-carboxylic acid] here?
**A.** 3.13 µg/mL

**Q.** What about the MIC [3] of the same molecule?
**A.** 0.78 µg/mL

**Q.** And the MIC [4]?
**A.** 6.25 µg/mL

**Q.** And the MIC [5]?
**A.** 6.25 µg/mL

**Q.** And the MIC [6]?
**A.** 0.78 µg/mL

**Q.** And the MIC [7]?
**A.** 12.5 µg/mL

**Q.** And the MIC [8]?
**A.** 6.25 µg/mL

**Q.** And the MIC [9]?
**A.** 3.13 µg/mL

**Q.** What about the MIC [10] of the same molecule?
**A.** 3.13 µg/mL

**Q.** What about the mice that died [11] of the same molecule?
**A.** None

**Q.** And the MIC [12]?
**A.** 1.56 µg/mL

**Q.** What about the MIC [13] of the same molecule?
**A.** 3.13 µg/mL

**Q.** And the MIC [14]?
**A.** 12.5 µg/mL

**Q.** What about the MIC [15] of the same molecule?
**A.** 6.25 µg/mL

**Q.** What about the MIC [16] of the same molecule?
**A.** 12.5 µg/mL

**Q.** And the MIC [17]?
**A.** 25 µg/mL

**Q.** And the MIC [18]?
**A.** 0.78 µg/mL

**Q.** For CC1=C(C(=O)O)N2C(=O)[C@@H](NC(=O)[C@H](N)c3ccccc3)[C@H]2SC1 [cephalexin], which “control” value [1] is on record?
**A.** cannot be controlled

**Q.** For COc1ccc(COc2ccc(-c3ccc(C(=O)N[C@@H](C(=O)NC4C(=O)N5C(C(=O)O)=C(CSc6nnnn6C)CSC45)c4ccc(O)cc4)c(=O)[nH]3)cc2OC)cc1OC (single isomer, unassigned) [Example 5, sodium salt of 7-{D(-)-α-[6-[4-(3,4-dimethoxybenzyloxy)-3-methoxyphenyl]-1,2-dihydro-2-oxopyridine-3-carbonylamino]-p-hydroxyphenylacetamido}-3-(1-methyl-1,2,3,4-tetrazol-5-ylthiomethyl)-3-cephem-4-carboxylic acid], which MIC [2] is on record?
**A.** 3.13 µg/mL

**Q.** What about the MIC [3] of the same molecule?
**A.** 0.78 µg/mL

**Q.** And the MIC [4]?
**A.** 12.5 µg/mL

**Q.** And the MIC [5]?
**A.** 12.5 µg/mL

**Q.** And the MIC [6]?
**A.** 0.39 µg/mL

**Q.** And the MIC [7]?
**A.** 12.5 µg/mL

**Q.** And the MIC [8]?
**A.** 6.25 µg/mL

**Q.** What about the MIC [9] of the same molecule?
**A.** 0.78 µg/mL

**Q.** And the MIC [10]?
**A.** 3.13 µg/mL

**Q.** What about the MIC [12] of the same molecule?
**A.** 0.2 µg/mL

**Q.** And the MIC [13]?
**A.** 0.2 µg/mL

**Q.** What about the MIC [14] of the same molecule?
**A.** 3.13 µg/mL

**Q.** What about the MIC [15] of the same molecule?
**A.** 6.25 µg/mL

**Q.** And the MIC [16]?
**A.** 6.25 µg/mL

**Q.** And the MIC [17]?
**A.** 12.5 µg/mL

**Q.** And the MIC [18]?
**A.** 0.78 µg/mL

**Q.** With CCN1CCN(C(=O)N[C@@H](C(=O)N[C@@H]2C(=O)N3[C@@H]2SC(C)(C)[C@@H]3C(=O)O)c2ccccc2)C(=O)C1=O [Example T-1220, piperacillin, reference compound] as the molecule, how does the MIC [2] read?
**A.** 6.25 µg/mL (≈ 12.1 µM)

**Q.** And the MIC [3]?
**A.** 0.78 µg/mL (≈ 1.51 µM)

**Q.** And the MIC [4]?
**A.** 12.5 µg/mL (≈ 24.2 µM)

**Q.** And the MIC [5]?
**A.** 200 µg/mL (≈ 386 µM)

**Q.** What about the MIC [6] of the same molecule?
**A.** 1.56 µg/mL (≈ 3.01 µM)

**Q.** And the MIC [7]?
**A.** 25 µg/mL (≈ 48.3 µM)

**Q.** What about the MIC [9] of the same molecule?
**A.** 100 µg/mL (≈ 193 µM)

**Q.** What about the MIC [10] of the same molecule?
**A.** 1.56 µg/mL (≈ 3.01 µM)

**Q.** What about the MIC [12] of the same molecule?
**A.** 0.78 µg/mL (≈ 1.51 µM)

**Q.** And the MIC [13]?
**A.** 25 µg/mL (≈ 48.3 µM)

**Q.** And the MIC [14]?
**A.** 0.78 µg/mL (≈ 1.51 µM)

**Q.** What about the MIC [15] of the same molecule?
**A.** 1.56 µg/mL (≈ 3.01 µM)

**Q.** And the MIC [16]?
**A.** 50 µg/mL (≈ 96.6 µM)

**Q.** What about the MIC [17] of the same molecule?
**A.** 50 µg/mL (≈ 96.6 µM)

**Q.** And the MIC [18]?
**A.** 1.56 µg/mL (≈ 3.01 µM)

**Q.** With O=C(Cc1cccs1)N[C@@H]1C(=O)N2C(C(=O)[O-])=C(C[n+]3ccccc3)CS[C@H]12 [cephaloridine] as the molecule, how does the “control” value [1] read?
**A.** cannot be controlled
